In patent US20260284051A1, “METHIONINE ADENOSYLTRANSFERASE 2A (MAT2A) INHIBITOR COMBINATIONS AND USES THEREOF” (INSILICO MEDICINE IP LIMITED, priority 2023, published 2026):

Columns and labels:
Format in all cases: in vivo
KP4 MTAP null xenografts = experiment: Efficacy study of KP-4 human pancreatic cancer xenograft model in NOD SCID mice; conditions: for Tumor volume (mm^3) Final (mean): Mean ± SD
Description: Efficacy Study of KP-4 Human Pancreatic Cancer Xenograft Model in NOD SCID Mice
The KP-4 tumor cell line was maintained in vitro as monolayer culture in RPMI 1640 medium supplemented with 10% fetal bovine serum at 37° C. in an atmosphere of […] in air. The tumor cells were routinely subculture weekly by trypsin-EDTA treatment, not to exceed 4-5 passages. The cells growing in an exponential growth phase was harvested and counted for tumor inoculation.
Each mouse was inoculated subcutaneously on the central right flank with KP-4 tumor cells (1×10^7) in 0.1 mL of RPMI-1640 without serum for the tumor development. The treatment started when the mean tumor size reached approximately 100 mm^3. Mice were assigned to groups such that the mean tumor volume is the same for each treatment group and time point.
For routine monitoring, all study animals were monitored for not only tumor growth but also behavior such as mobility, food, and water consumption (by cage side checking only), body weight (BW), eye/hair matting and any other abnormal effect. Any mortality and/or abnormal clinical signs were recorded.
Body weights of all animals were measured twice a week throughout the study. Body weight change, expressed in %, will be calculated using the following formula: BW change (%)=(BWDay x/BWDay 0)×100, where BWDay x is BW on a given day, and BWDay 0 is BW on Day 0 (initiation of treatment).
The measurement of tumor size were conducted twice a week with a caliper and the tumor volume (mm^3) was estimated using the formula: TV=a×b^2/2, where a and b are long and short diameters of a tumor, respectively. The TVs were used for calculation of the tumor growth inhibition (TGI, an indicator of antitumor effectiveness) value using the formula: TGI (%)=[1−(Tn−T0)/(Cn−C0)]×100%, only over the dosing period (dosing days 0 to days n). Where: Tn—is the avg tumor volume at the respective day “n” after dosing throughout treatment period; T0—is the avg tumor volume in the treatment group at day 0 before treatment (immediately before); Cn—avg tumor volume in the control group at the respective day “n” after dosing throughout treatment period; and C0—average tumor volume in the control group at day 0 before treatment (immediately before). The experiment was terminated when the mean tumor volume exceeded 2000 mm^3 or severe body weight loss.
The statistical software GraphPad Prism (version number: 8) was used to analyze the difference in tumor volume between the treatment group and the solvent control group. Two-way ANOVA and Bonferroni multiple tests were used to compare whether there was a significant difference in tumor volume between the vehicle control group and each treatment group during the administration period.
(§1) Mean tumor volume at dosing start was approximately 102 mm^3, with ten mice randomized to each treatment group. In the KP4 MTAP null tumor model, mice were dosed orally, once per day (QD) with Vehicle, once per day (QD) with Compound 1 at 1, 3 mg/kg, once per day (QD) with AG270 at 100 mg/kg, mice were intravenous, per week with Docetaxel at 2.5 mg/kg, or Compound 1 combined with Docetaxel at each dose level.

[1] = system: HCC15 MTAP null xenografts; experiment: Efficacy study of HCC15 human lung cancer xenograft model in NOD SCID mice; conditions: for Tumor volume (mm^3) Final (mean): Mean ± SD
Description: Efficacy Study of HCC15 Human Lung Cancer Xenograft Model in NOD SCID Mice Methods:
The HCC15 cells were maintained in vitro as a monolayer culture in 90% 1640+10% FBS, 100U/ml penicillin and 100 μg/ml streptomycin at 37° C. in an atmosphere of 5% CO2 in air. The tumor cells were routinely subcultured at a ratio of 1:2 to 1:3 every 3-4 days. Alternatively, Cultures were maintained by addition or replacement of fresh medium. Started cultures at 5×10^5 cells/mL and maintained between 0.5×10^5 and 2×10^6 cells/ml.
NOD SCID mice, female, 6-8 weeks, weighing approximately 20-22 g.
Each mouse were inoculated subcutaneously at the right flank with HCC15 cells in a 0.2 mL mixture of 1640 for tumor development (5×10^6 cells/mouse). Dosing was started when the average tumor size reaches approximately 100-200 mm^3 for the tumor efficacy study with tool and med chem molecules to look for efficacy vs vehicle tumor growth.
as §1, with “133.09” for “102”, “HCC15” for “KP4”, “at” for “at 1,”

[2] = system: NCI-H838 MTAP null xenografts; experiment: Efficacy study of NCI-H838 human lung cancer xenograft model in NOD SCID mice; conditions: MRTX1719 50 mg/kg QD
From the text: Efficacy Study of NCI-H838 Human Lung Cancer Xenograft Model in NOD SCID Mice Methods:
The NCI-H838 cancer cells were maintained in vitro with RPMI-1640 medium supplemented with 10% fetal bovine serum at 37TC in an atmosphere of 5% CO2 in the air. The cells in exponential growth phase were harvested and quantitated by cell counter before tumor inoculation.
NOD SCID mice, female, 6-8 weeks, weighing approximately 20-22 g, All the mice were purchased from Shanghai Lingchang Bio-Tech Co., Ltd.
Each mouse was inoculated subcutaneously at the right flank with NCI-H838 cells in a 0.1 mL of PBS mixed with Matrigel (1:1) for tumor development (5×10^6 cells/mouse). Dosing was started when the average tumor size reached approximately ~150 mm^3 for the tumor efficacy study with tool and med chem molecules to look for efficacy vs vehicle tumor growth.
Mean tumor volume at dosing start was approximately 146.51 mm^3, with six mice randomized to each treatment group. In the NCI-H838 MTAP null tumor model, mice were dosed orally, once per day (QD) with vehicle, once per day (QD) with Compound 1 at 3, 10 mg/kg, mice were intravenous, once per day (QD) with PRMT5 inhibitor MRTX1719 at 50 mg/kg, or Compound 1 combined with MRTX1719 at each dose level.

[3] = Docetaxel 2.5 mg/kg intravenous per week

CC(=O)O[C@@]12CO[C@@H]1C[C@H](O)[C@@]1(C)C(=O)[C@H](O)C3=C(C)[C@@H](OC(=O)[C@H](O)[C@@H](NC(=O)OC(C)(C)C)c4ccccc4)C[C@@](O)([C@@H](OC(=O)c4ccccc4)[C@H]21)C3(C)C [Docetaxel, docetaxel, reference compound]
TGI (%) (KP4 MTAP null xenografts; [3]): 51.6%
Tumor volume (mm^3) Final (mean) (KP4 MTAP null xenografts; [3]): 1,159 ± 129 mm^3
TGI (%) [1, 3]: 58.5%
Tumor volume (mm^3) Final (mean) [1, 3]: 515 ± 36 mm^3

AG270 [reference compound]
TGI (%) (KP4 MTAP null xenografts; AG270 100 mg/kg orally QD): 55.7%
Tumor volume (mm^3) Final (mean) (KP4 MTAP null xenografts; AG270 100 mg/kg orally QD): 1,070 ± 132 mm^3
TGI (%) ([1]; AG270 100 mg/kg orally QD, 100 mg/kg): 55.3%
Tumor volume (mm^3) Final (mean) ([1]; AG270 100 mg/kg orally QD): 544 ± 30 mm^3

Cn1ncc(-c2ccc3c(=O)[nH]nc(CN)c3c2)c1-c1c(F)c(Cl)cc(OC2CC2)c1C#N [MRTX1719, reference compound]
TGI (%) [2]: 81.5%
Tumor volume (mm^3) Final (mean) ([2]; Mean ± SD): 501 ± 69 mm^3
